The source of these data is patent US10150761B2, “Substituted pyridine-piperazinyl analogues as RSV antiviral compounds” (Janssen Sciences Ireland UC, priority 2013, dated 2018).

The subject of data set [1] is HeLa cells. In words: Cytotoxicity in HeLa cells (ATP content, ATPlite kit). The format is cell-based. Particulars: three days incubation. On the procedure:
(§1) Glycosaminoglycan sulfation requirements for respiratory syncytial virus infection; Journal of virology (2000), 74(22), 10508-13) and was in-licensed from the NIH (Bethesda, Md., USA). Finally, 20 μL of a HeLa cell suspension (3,000 cells/well) were plated. Medium, virus- and mock-infected controls were included in each test. The wells contain 0.05% DMSO per volume. Cells were incubated at 37° C. in a 5% CO2 atmosphere. Three days post-virus exposure, viral replication was quantified by measuring GFP expression in the cells by an in house developed MSM laser microscope (Tibotec. Beerse, Belgium). The EC50 was defined as the 50% inhibitory concentration for GFP expression. In parallel, compounds were incubated for three days in a set of white 384-well microtiter plates (Corning) and the cytotoxicity of compounds in HeLa cells was determined by measuring the ATP content of the cells using the ATPlite kit (PerkinElmer, Zaventem, Belgium) according to the manufacturer's instructions. The CC50 was defined as the 50% concentration for cytotoxicity.
Background: ATP-based viability assays read luminescence as a measure of living cells.

For data set [2], the system named is rgRSV224 virus. In words: Antiviral activity: rgRSV224 (GFP) replication in HeLa cells. It counts as cell-based, respiratory syncytial virus (RSV). Conditions: for EC50: human respiratory syncytial virus, HeLa, 72 h, read-out: RSV HELA pEC50, rgRSV224 virus (MOI=1), HeLa cells, GFP expression, three days post-virus exposure (converted). As to the method: Black 384-well clear-bottom microtiter plates (Corning, Amsterdam, The Netherlands) were filled via acoustic drop ejection using the echo liquid handler (Labcyte, Sunnyvale, Calif.), 200 nL of compound stock solutions (100% DMSO) were transferred to the assay plates, 9 serial 4-fold dilutions of compound were made, creating per quadrant the same compound concentration. The assay was initiated by adding 10 μL of culture medium to each well (RPMI medium without phenol red, 10% FBS-heat inactivated, 0.04% gentamycin (50 mg/mL). All addition steps are done by using a multidrop dispenser (Thermo Scientific, Erembodegem, Belgium). Next, rgRSV224 virus (MOI=1) diluted in culture medium was added to the plates, rgRSV224 virus is an engineered virus that includes an additional GFP gene (Hallak L K, Spillmann D. Collins P L, Peeples M E.
as §1

Data set [3] in a line: Cytotoxicity in HeLa cells (ATP content, ATPlite kit). Particulars: human, three days incubation, read-out: TOX HELA pCC50 (converted). The format is cell-based. On the procedure:
as §1

Turning to `COc1ccc(-c2ncccc2N2CCN(c3ccncc3)CC2)cc1` [Compound 4], the melting point (as a rule, the temperature, or range, at which the solid turns liquid) came out at 216 °C. Besides, the “TOX HELA pCC50” value in data set [1] is listed as less than 4.01. The “RSV HELA pEC50” value in data set [2] (rgRSV224 virus (MOI=1), HeLa cells, GFP expression, three days post-virus exposure) came to 6.38.
With `CSc1ccc(-c2ncccc2N2CCN(c3ccncc3)CC2)cc1` [Compound 35], the melting point came out at 160 °C. Besides, the CC50 at 3 days in data set [3] is 45.7 µM. The EC50 in data set [2] was 0.117 µM.
For `c1cnc(-c2ccc3[nH]ccc3c2)c(N2CCN(c3ccncc3)CC2)c1` [Compound 36] the same measures were 252 °C, 44.7 µM and 0.0794 µM.
`CCn1ccc2cc(-c3ncccc3N3CCN(c4ccncc4)CC3)ccc21` [Compound 37] yielded a melting point of 110 °C. Further, in data set [3], the CC50 at 3 days was 21.9 µM. In data set [2], the EC50 is 0.0309 µM.
For `c1cnc(-c2coc3ccccc23)c(N2CCN(c3ccncc3)CC2)c1` [Compound 38] the same measures were 210 °C, 44.7 µM and 0.132 µM.
In turn, `c1cnc(-c2cccc3cc[nH]c23)c(N2CCN(c3ccncc3)CC2)c1` [Compound 39] gave a melting point of 162 °C. The CC50 at 3 days in data set [3] was 55 µM. Also, the EC50 in data set [2] was 0.851 µM.
For `Cn1ccc2ccc(-c3ncccc3N3CCN(c4ccncc4)CC3)cc21` [Compound 41] the same measures were 174.57 °C, 49 µM and 0.0115 µM.
For `CS(=O)(=O)Nc1ccc(-c2ncccc2N2CCN(c3ccncc3)CC2)cc1` [Compound 42] the same measures were 248 °C, more than 100 µM and 0.501 µM.
`Cn1ccc2c(-c3ncccc3N3CCN(c4ccncc4)CC3)cccc21` [Compound 43] registered a melting point of 170 °C. In data set [3], the CC50 at 3 days is 45.7 µM. Further, the EC50 in data set [2] was 0.0302 µM.
As to `c1cnc(-c2ccc3cc[nH]c3c2)c(N2CCN(c3ccncc3)CC2)c1` [Compound 44], the melting point stood at 195 °C. In data set [3], the CC50 at 3 days is 53.7 µM. The EC50 in data set [2] is 0.0324 µM.
`c1cnc(-c2ccc3ncsc3c2)c(N2CCN(c3ccncc3)CC2)c1` [Compound 45] had a melting point of 196 °C. Further, the CC50 at 3 days in data set [3] is more than 100 µM. Further, the EC50 in data set [2] is 0.155 µM.
For `OCCCn1ccc2cc(-c3ncccc3N3CCN(c4ccncc4)CC3)ccc21` [Compound 46] the same measures were 110 °C, 52.5 µM and 0.148 µM.
For `Cn1ccc2cc(C(F)(F)F)c(-c3ncccc3N3CCN(c4ccncc4)CC3)cc21` [Compound 49] the same measures were 120 °C, 75.9 µM and 0.0676 µM.
On to `OCCCn1c(-c2ncccc2N2CCN(c3ccncc3)CC2)cc2ccccc21` [Compound 50], for which the melting point came out at 110 °C. For the same compound, the CC50 at 3 days in data set [3] is more than 100 µM. Besides, the EC50 in data set [2] is 0.00661 µM.
For `c1ccc(Oc2nccnc2N2CCN(c3ccncc3)CC2)cc1` [Compound 54] the same measures were 130 °C, 87.1 µM and 10.7 µM.
The like results for `c1coc(-c2ccc(-c3nccnc3N3CCN(c4ccncc4)CC3)cc2)c1` [Compound 55] were, in that order, 153.75 °C, 36.3 µM and 0.794 µM.
For `c1coc(-c2ccc(-c3ncccc3N3CCN(c4ccncc4)CC3)cc2)c1` [Compound 56] the same measures were 224.32 °C, 19.5 µM and 0.0955 µM.
In turn, `c1ccc(-c2ccc(-c3ncccc3N3CCN(c4ccncc4)CC3)cc2)cc1` [Compound 59] had a melting point of 98 °C. The CC50 at 3 days in data set [3] is 10.7 µM. The EC50 in data set [2] was 0.525 µM.
Consider `c1cnc(-c2ccc(N3CCCCC3)cc2)c(N2CCN(c3ccncc3)CC2)c1` [Compound 60], for which the melting point was found to be 92 °C. Moreover, in data set [3], the CC50 at 3 days is 22.9 µM. For the same compound, the EC50 in data set [2] was 0.355 µM.
The like results for `COc1ccc(-c2ccc(-c3ncccc3N3CCN(c4ccncc4)CC3)cc2)cc1` [Compound 62] were, in that order, 178 °C, 11.5 µM and 0.257 µM.
`Cc1ccc(-c2ccc(-c3ncccc3N3CCN(c4ccncc4)CC3)cc2)o1` [Compound 65] displayed a melting point of 230 °C. In addition, the CC50 at 3 days in data set [3] is 11 µM. For the same compound, the EC50 in data set [2] was 0.191 µM.
`OC(c1ccccc1)(c1ccccc1)c1ncccc1N1CCN(c2ccncc2)CC1` [Compound 68] had a melting point of 260 °C. Also, in data set [3], the CC50 at 3 days is more than 25.1 µM. The EC50 in data set [2] is 0.0251 µM.
The like results for `c1cnc(N2CCN(c3ccncc3)CC2)c(N2CCN(c3ccncc3)CC2)c1` [Compound 69] were, in that order, 186 °C, 40.7 µM and 0.933 µM.
In the case of `CC(C)(O)c1ncccc1N1CCN(c2ccncc2)CC1` [Compound 70], the melting point was 163 °C. For the same compound, the CC50 at 3 days in data set [3] is more than 100 µM. In addition, the EC50 in data set [2] is 19.1 µM.
